Data on three molecules can be found in patent US6300317A, “Self-assembling polynucleotide delivery system” (The Regents of the University of California, priority 1995, dated 2001).

For assay [1], the system named is calf thymus DNA. Briefly: Ethidium bromide displacement assay, binding of bis-acridines to double-stranded DNA. Conditions: computed from ethidium bromide displacement (IC50), noncooperative competitive binding model; read-out: Dissociation Constants of the Bis-acridines from Calf Thymus DNA. How it is done: The affinity of the bis-acridines for calf thymus DNA was calculated from the displacement of ethidium bromide from double stranded nucleic acids (Nielsen, supra). Ethidium displacement was monitored by the decrease of the ethidium bromide fluorescence (ex.=540 nm, em.=610 nm) that occurs when it is released from DNA. The association constants of the bis-acridines relative to ethidium bromide are calculated from their IC50. In this study, spermidine bis-acridine trihydrochloride (SBA.cndot.3HCl) synthesized as described (Nielsen, supra), was used as the reference compound. As a result of the loss of one of its three positive charges, a slight but significant decrease in affinity is observed when the N^4 amino group of spermidine bis-acridine is engaged in an amide bond with the targeting carbohydrate in compound 21 (Gal-bA.cndot.2 HCl). However, we predict an increase in affinity when spermidine bis-acridine is linked to the highly positively charged NLS peptide SEQ ID NO:1. G. Karup et al., Int J Peptide Protein Res (1988) 32:331-343.

Assay [2] deals with calf thymus DNA. The settings on record: constant used to compute the bis-acridine binding constants; read-out: intrinsic dissociation constant for ethidium bromide; cited from earlier work.

Where two headings read alike, the source gives them in different places.

Regarding `O=C(CCCCCS[C@@H]1O[C@H](CO)[C@H](O)[C@H](O)[C@H]1O)NCCCC[C@H](NC(=O)CCCCCS[C@@H]1O[C@H](CO)[C@H](O)[C@H](O)[C@H]1O)C(=O)N[C@@H](CCCCNC(=O)CCCCCS[C@@H]1O[C@H](CO)[C@H](O)[C@H](O)[C@H]1O)C(=O)N(CCCCNc1c2ccccc2nc2ccccc12)CCCNc1c2ccccc2nc2ccccc12` [Gal3 Lys2 -bA], the Kd in the assay on calf thymus DNA [1] was 5.4 µM. Take `CC[n+]1c(-c2ccccc2)c2cc(N)ccc2c2ccc(N)cc21` [ethidium bromide]: in the assay on calf thymus DNA [2], the Kd is 5.3 µM. As to `c1ccc2c(NCCCCNCCCNc3c4ccccc4nc4ccccc34)c3ccccc3nc2c1` [SBA · 3HCl, N,N'-bis-(9-acridinyl)-4-aza-1,8-diaminooctane], the Kd in the assay on calf thymus DNA [1] came out at 0.024 µM.
